# Experimental data: ChEMBL document CHEMBL3137356, “MMV Box Cryptosporidium parvum screening set”
# Test system: Cryptosporidium parvum
# Assay: MMV: Cryptosporidium parvum oocysts (Iowa Strain) were prepared for use by treatment with 10 mM HCl (37 degrees C, 10 min) followed by 2 mM sodium taurocholate in phosphate-buffered saline (PBS) with Ca2+ and Mg2+ (16 degrees C, 10 min) in order to stimulate excystation. The high-throughput screen was carried out by inoculating >90% confluent human ileocecal adenocarcinoma (HCT-8) cells (ATCC) with ~5.5 x 10^3 primed oocysts per well. Experimental compounds or DMSO (vehicle) were added three hours after infection, and cells were incubated for 48 hours.
# Format: functional
row,Structure (SMILES),Inhibition [%]
1,O=C(Nc1ccc(Cl)c(Cl)c1)Nc1ccc(Cl)c(Cl)c1,79.74
2,COc1ccc(Nc2nc(N/N=C/c3ccc(O)cc3)nc(Nc3ccc([N+](=O)[O-])cc3)n2)cc1,-49.8
3,COc1ccc(C2c3ccc4ccccc4c3Oc3ncn(CCCN(C)C)c(=N)c32)cc1 (centres undefined),9.024
4,N=c1n(CCN2CCCCC2)c2ccccc2n1CC(=O)c1ccc(Cl)c(Cl)c1,-71.18
5,Nc1nc(Nc2cccc(F)c2)nc2ccccc12,22.76
6,COc1ccc(/C=C2/SC(=Nc3ccccc3)NC2=O)cc1,35.48
7,c1ccc(/C2=N/c3ccccc3/N=C(/c3ccccc3)c3ccccc32)cc1,8.997
8,COc1ccc(-c2nc(N3CCN(C(=O)C4CCCCC4)CC3)c3c4c(sc3n2)CCCC4)cc1,-3.496
9,O=C(NC1CCN(Cc2ccccc2)CC1)c1cc2nc(-c3ccc(Cl)s3)cc(C(F)(F)F)n2n1,-21.67
10,Cc1sc(NC(=O)c2ccccc2)c(C(c2cccs2)N2CCN(c3ccccc3)CC2)c1C (centres undefined),-51.35
11,Cc1sc(NC(=O)c2ccco2)c(C(c2cccnc2)N2CCC(Cc3ccccc3)CC2)c1C (centres undefined),-7.724
12,CCOC(=O)c1c(C)n(-c2ccccc2)c2ccc(OC(=O)c3cc(OC)c(OC)c(OC)c3)cc12,4.591
13,COc1cc(C(=O)Nc2nc3c(cc4c5c(cccc53)CC4)s2)cc(OC)c1OC,-26.05
14,COc1ccc(CCN2C(=O)c3[nH]nc(-c4cc(Cl)c(C)cc4O)c3C2c2ccccc2F)cc1 (centres undefined),10.68
15,N#Cc1nc(Cc2cccc3ccccc23)oc1N1CCN(C(c2ccccc2)c2ccccc2)CC1,-4.219
16,O=C(NNc1cc(N2CCCC2)nc(N2CCCC2)n1)c1ccccc1,-52.02
17,COC(=O)c1ccc(Cl)c2c1C1C=CCC1C(c1cccc3ccccc13)N2 (centres undefined),-26.02
18,COc1ccc(C2c3ccc4ccccc4c3Oc3ncn(CCCn4ccnc4)c(=N)c32)cc1OC (centres undefined),5.542
19,CN(N=O)C1=C(NC2CCCCC2)C(=O)c2ccccc2C1=O,-6.459
20,O=C(CCc1ccccc1)c1ccccc1OCC(O)CN1CCCCC1 (centres undefined),-4.075
21,OC1=C2C(=Nc3ccccc3SC2c2ccccc2)c2ccccc21 (centres undefined),-46.02
22,COc1cc(C(=O)Nc2ccc(-c3nc4ccccc4[nH]3)cc2)cc(OC)c1OC,41.18
23,CCOc1ccc(N2C(N)=NC(N)=NC2(C)C)cc1.Cl,-26.74

row,Structure (SMILES),Inhibition [%]
1,COc1cccc(Nc2nc(N)c3ccccc3n2)c1.Cl,27.99
2,Cc1ccc(C(=O)c2oc3ccc4c(C)cc(=O)oc4c3c2C)cc1,28.07
3,COc1ccc(CN2CCCC(C(=O)c3ccc(C(F)(F)F)cc3)C2)c(O)c1 (centres undefined),-4.732
4,COC(=O)c1ccc(C2C3=C(O)CC(c4ccc(F)cc4)CC3=Nc3ccccc3N2C(=O)c2ccccc2)cc1 (centres undefined),-18.81
5,CCCCCCc1cc2cc(-c3csc(C=Cc4ccccc4)n3)c(=O)oc2cc1O,10.86
6,O=C(CCl)NCCOc1ccc(Cl)cc1Cl,7.535
7,Oc1ccc(-c2nc(-c3ccc4oc5ccc(-c6[nH]c(-c7ccc(O)cc7)nc6-c6ccccc6)cc5c4c3)c(-c3ccccc3)[nH]2)cc1,-17.83
8,CC(Oc1ccc(NC(=O)c2cccs2)cc1)C(=O)c1ccc(Cl)cc1 (centres undefined),19.15
9,CCOc1ccc(CN2CCN(CC(O)COc3ccc(OCC(O)CN4CCN(Cc5ccc(OCC)cc5)CC4)cc3)CC2)cc1 (centres undefined),1.883
10,CCCCNc1nc(NC(C)(C)C)nc(NC(C)(C)C)n1,20.51
11,COc1ccc(CNC(=O)c2cc3c(=O)n4ccccc4nc3n(CCc3ccccc3)c2=N)cc1,20.87
12,Brc1ccc(Nc2nc3ccccc3nc2Nc2ccc(Br)cc2)cc1,-31.05
13,O=C(NC1CCN(Cc2ccccc2)CC1)c1cc(C(=O)NC2CCN(Cc3ccccc3)CC2)cc(C(=O)NC2CCN(Cc3ccccc3)CC2)c1,0.9409
14,COc1ccc(CCn2c(=N)c(C(=O)NCc3cccnc3)cc3c(=O)n4cccc(C)c4nc32)cc1,0.9407
15,CC(=O)c1sc(NC(=O)Nc2ccc(C)cc2C)nc1C,-18.27
16,COc1ccc(-c2cn3c(C(=O)Nc4ccccc4Cl)c(-c4ccccc4)c4c3n2CCCC4)cc1,34.31
17,Cl.Cn1c(=O)n(C)c2cc(CNCCNc3ccnc4cc(Cl)ccc34)ccc21,20.67
18,Cc1cc(Nc2ccc(OCc3ccccc3)cc2)nc2cc(O)ccc12,-18.86
19,Cn1c(C(=O)c2cccc3ccccc23)nc2ccccc21,-17.7
20,CCN(CC)CCNc1ccnc2cc3ccccc3cc12.O=P(O)(O)O,3.908
21,CCOc1ccc2nc(C)cc(Nc3ccc(N(C)C)cc3)c2c1.Cl,-13.24
22,COc1ccc(Nc2cc(C)nc(NCc3ccccc3)n2)cc1,-1.126
23,COc1ccc(C=C2SC(Nc3ccc(F)cc3)=NC2=O)c(OC)c1,36.03

row,Structure (SMILES),Inhibition [%]
1,Oc1ccc2ccccc2c1CNc1nc2ccccc2[nH]1,-48.76
2,O=C(Nc1ccc(-c2nc3ccccc3[nH]2)cc1)c1ccc(Cl)c(Cl)c1,10.57
3,O=C1c2ccc3c4c(ccc(c24)C(=O)N1CCCCO)C(=O)N(CCCCO)C3=O,79.86
4,O=C(Nc1ccc(-c2nc3cc(NC(=O)c4ccc(Cl)cc4)ccc3[nH]2)cc1)c1ccc(Cl)cc1,-6.932
5,OCCNc1nc(Nc2ccc(Cl)c(Cl)c2)nc2ccccc12,12.96
6,Nc1ccc(-c2nc3cc(Oc4ccc(Oc5ccc6[nH]c(-c7ccc(N)cc7)nc6c5)cc4)ccc3[nH]2)cc1,-48.18
7,CCOC(=O)c1cnc2ccc(OC)cc2c1Nc1ccc(N2CCN(C)CC2)cc1,-40.43
8,Cc1cc(N(C)C)nc(Nc2ccc(NC(=O)Nc3ccccc3)cc2)n1,-29.16
9,COc1ccccc1C(=O)ON=C(N)Cc1cccc2ccccc12,-19.53
10,COc1ccc(C(=O)C(CCC(CNC(C)(C)C)C(=O)c2ccc(OC)cc2)CNC(C)(C)C)cc1 (centres undefined),-20.25
11,CCOc1cc2c(cc1OCC)C(c1cc(Cl)ccc1O)NCC2 (centres undefined),-2.297
12,COc1cc(C(=O)ON=C(N)Cc2cccc3ccccc23)cc(OC)c1OC,26.07
13,CN1C=C(c2ccc3ccccc3n2)C(c2c[nH]c3ccccc23)c2ccccc21 (centres undefined),-24.69
14,Oc1c(C(Nc2ccccn2)c2cccc(Oc3ccccc3)c2)ccc2cccnc12 (centres undefined),73.93
15,COc1cc(-c2nc(-c3ccccc3)c(-c3ccccc3)[nH]2)cc(OC)c1O,-1.324
16,Cc1ccc(-c2nc3ccccc3o2)cc1NCc1cc(Cc2ccccc2)ccc1O,20.55
17,Cc1ccc(Nc2nc(N)c3ccccc3n2)cc1Cl,40.42
18,OC(CNC1CCCCC1)Cn1c2ccc(I)cc2c2cc(I)ccc21 (centres undefined),25.2
19,CCc1ccc(CNCC(O)c2ccccc2)cc1.Cl (centres undefined),-7.138
20,Br.CCn1c2c(c(=N)c3c1CCC3)CCCC2,9.729
21,O=C(Cc1ccccc1)NC(c1ccc(Cl)cc1)c1c(O)ccc2ccccc12 (centres undefined),-13.28
22,COc1cc(CNCCc2ccc(Cl)cc2)cc(OC)c1O,5.38
23,Cc1ccc2c(C)nc(Nc3nc(C)cc(-c4ccccc4)n3)nc2c1,-62.95

row,Structure (SMILES),Inhibition [%]
1,c1ccc(CNc2nc(Nc3ccccc3)nc3ccccc23)cc1,87.13
2,CCOc1ccc(Nc2ccnc3cc(Cl)ccc23)cc1,-43.83
3,Cc1cccc(N2C(=O)C3C(C2=O)C2(c4ccccc4)C(=O)C3(c3ccccc3)C(c3ccc4c(c3)OCO4)=C2c2ccc3c(c2)OCO3)c1 (centres undefined),1.02
4,Oc1ccc(Br)cc1CN1CCN(Cc2ccc(Cl)cc2)CC1,-16.25
5,CCOc1ccc2nc(C)cc(Nc3ccc(Br)cc3)c2c1,-4.208
6,COc1cc2c3cc1Oc1c(OC)c(OC)cc4c1C(Cc1ccc(O)c(c1)Oc1ccc(cc1)CC3N(C)CC2)N(C)CC4.Cl (centres undefined),-14.29
7,CCCCCCc1cc2cc(-c3nc4ccccc4[nH]3)c(=Nc3ccccc3C)oc2cc1O,-3.461
8,Br.Cc1ccc(C)c(-c2csc(Nc3ccc(C)c(C)c3)n2)c1,-25.23
9,COc1ccc2sc(N(Cc3cccnc3)C(=O)c3ccc(C#N)cc3)nc2c1,39.49
10,CC1CC2=C(CC1CNCCCN(C)C)C(C)(C)CCC2 (centres undefined),42.26
11,CN(C)c1ccc(N=Cc2ccc(N3CCOCC3)cc2)cc1,-8.003
12,CCOC(=O)c1cnc2ccc(OC)cc2c1NCc1ccccc1,13.76
13,CCCn1c(=N)c(C(=O)NC2CCCCC2)cc2c(=O)n3cccc(C)c3nc21,-27.29
14,CCOC(=O)C1=CN(C)C=C(C(=O)OCC)C1c1cc(Br)c(OCC)c(OC)c1,-2.299
15,CC(C)(C)c1ccc(C2CC3=Nc4ccccc4N(C(=O)c4ccccc4Cl)C(c4ccc(F)cc4)C3=C(O)C2)cc1 (centres undefined),20.41
16,CN1CCN(c2nc(Nc3ccc(O)cc3)nc3ccccc23)CC1.Cl,-22.12
17,CCCCc1c(CCC)c(=N)c2ccccc2n1C.I,11.94
18,Nc1ccn([C@@H]2O[C@H](CO)[C@@H](O)[C@H]2O)c(=O)n1 [CYTIDINE],73.84
19,O=C(Nc1cccc(C2=NCCN2)c1)Nc1cccc(C2=NCCN2)c1 [IMIDOCARB],9.453
20,CN(C)c1ccc(C(O)(c2ccc(N(C)C)cc2)c2ccc(N(C)C)cc2)cc1 [METHYLROSANILINE],77.77
